ChEMBL document CHEMBL5331056 (Eur J Med Chem, 2022)

Experiments:
PC-3 = experiment: Anticancer activity against human PC-3 cells assessed as cell growth inhibition measured after 72 hrs by MTT assay; type: functional, cell-based; conditions: PC-3, 72 h
MCF7 = experiment: Anticancer activity against human MCF7 cells assessed as cell growth inhibition measured after 72 hrs by MTT assay; type: functional, cell-based; conditions: MCF7, 72 h
[1] = Antioxidant activity assessed as DPPH radical scavenging activity measured after 1 hrs; type: functional
[2] = Antioxidant activity assessed as DPPH radical scavenging activity measured after 30 mins; type: functional
[3] = test system: Human immunodeficiency virus; experiment: Antiviral activity against HIV infected in MT4 cells assessed as viral replication; type: functional, organism-based; conditions: Human immunodeficiency virus 1, MT4
Rattus norvegicus = experiment: Antidiabetic activity against overnight fasted STZ-induced Wistar rat of type 1 diabetes assessed as increase in insulin level at 1 mg/kg, po by ELISA (reference value: 7.7 +/- 1.0 microIU/mL); type: functional
[4] = Toxicity in STZ-induced Wistar rat of type 1 diabetes assessed as coronary arterial flow rate at 3 mg/kg, ip administered twice daily measured after 4 weeks (reference value: 12.6 +/- 0.5 mL/min); type: organism-based; conditions: in vivo, 672 h
Mus musculus [5] = experiment: Antidiabetic activity in STZ-induced Swiss albino mouse assessed as inhibition of IFN-gamma level at 5 microM/kg, ip administered twice daily measured after 21 days relative to control; type: functional; design: scale not given: the % may be the effect or the level left; conditions: time 21 day, at 5 µmol/kg
Mus musculus [6] = experiment: Antiinflammatory activity in STZ-induced C57BL/6J mouse of non insulin dependent diabetes mellitus assessed as PPAR-alpha level at 30 mg/kg; type: functional
[7] = Induction of insulin-sensitizing activity in insulin-resistant human HepG2 cells assessed as increase in glucose consumption at 60 ng/ml relative to control; type: functional, insulin-resistant human HepG2 cell
Mus musculus [8] = experiment: Antidiabetic activity in STZ-induced Swiss albino mouse assessed as inhibition of NO level at 5 microM/kg, ip administered twice daily measured after 21 days relative to control; type: functional; design: scale not given: the % may be the effect or the level left; conditions: time 21 day, at 5 µmol/kg
Mus musculus [9] = experiment: Antidiabetic activity in STZ-induced Swiss albino mouse assessed as blood glucose level at 5 microM/kg, ip administered twice daily measured after 21 days (reference value: 220 +/- 7.2mg/dl); type: functional; conditions: time 21 day
Mus musculus [10] = experiment: Antidiabetic activity in STZ-induced Swiss albino mouse assessed as inhibition of IL-1beta level at 5 microM/kg, ip administered twice daily measured after 21 days relative to control; type: functional; design: scale not given: the % may be the effect or the level left; conditions: time 21 day, at 5 µmol/kg
Mus musculus [11] = experiment: Antidiabetic activity in STZ-induced Swiss albino mouse assessed as insulin level at 5 microM/kg, ip administered twice daily measured after 21 days (reference value: 88.7%); type: functional; conditions: time 21 day, at 5 µmol/kg
[12] = Induction of insulin-sensitizing activity in insulin-resistant human HepG2 cells assessed as increase in glucose consumption at 30 ng/ml relative to control; type: functional, insulin-resistant human HepG2 cell
Mus musculus [13] = experiment: Antidiabetic activity in STZ-induced C57BL/6J mouse assessed as increase in insulin sensitivity at 30 mg/kg; type: functional

Oc1ccc(/C=C/COCCCCCCc2ccccc2)cc1
IC50 (PC-3): > 10 µM
IC50 (MCF7): > 10 µM

O=C(/C=C/c1ccc(O)c(O)c1)O[C@H]1[C@H](O)C[C@](O)(C(=O)O)C[C@H]1OC(=O)/C=C/c1ccc(O)c(O)c1
FRS50 [1]: 23.8 µM

O=C(O)/C=C/c1ccc(O)c(O)c1 [CAFFEIC ACID]
IC50 [2]: 32.2 µM

COC(=O)/C=C/c1cc(O)c(O)cc1O
IC50 [2]: 53.3 µM

Oc1ccc(/C=C/COCCCCCCc2ccccc2)cc1O
IC50 (PC-3): 1.4 µM
IC50 (MCF7): 2.4 µM

O=C1C=C(Cn2cc(COc3ccc(CO)cc3)nn2)C(=O)C=C1O
IC50 [3]: 4.2 µM

CCCCCCCCCCOC/C=C/c1cccc(O)c1
IC50 (PC-3): > 10 µM
IC50 (MCF7): > 10 µM

O=C(/C=C/c1ccc(O)c(O)c1)O[C@@H]1[C@H](O)C[C@@](O)(C(=O)O)C[C@H]1OC(=O)/C=C/c1ccc(O)c(O)c1
FRS50 [1]: 19.8 µM

CC(=O)/C=C/c1ccc(O)c(O)c1O
IC50 [2]: 16.8 µM

O=C(/C=C/c1ccc(O)c(O)c1)NCCc1ccccc1 [CAFFEIC ACID PHENETHYL AMIDE]
Activity (Rattus norvegicus): 14.9 uIU/ml
Activity [4]: 11.2 mL/min

Oc1ccc(/C=C/COCCc2ccccc2)cc1O
IC50 (PC-3): 1.2 µM
IC50 (MCF7): 8 µM

COC(=O)/C=C/c1ccc(O)c(O)c1O
IC50 [2]: 18.6 µM

Oc1ccc(/C=C/COCCc2ccccc2)cc1
IC50 (PC-3): > 10 µM
IC50 (MCF7): > 10 µM

O=C(/C=C/c1ccc(O)c(O)c1)O[C@@H]1C[C@](O)(C(=O)O)C[C@@H](OC(=O)/C=C/c2ccc(O)c(O)c2)[C@H]1O
FRS50 [1]: 71.8 µM

C[C@@]1(C(=O)O)O[C@H]1COC(=O)/C=C/c1ccc(O)c(O)c1
FRS50 [1]: 43.8 µM

CCCCCCCCCCOC/C=C/c1cc(O)c(O)c(O)c1
IC50 (PC-3): 0.6 µM
IC50 (MCF7): 0.8 µM

CCCCCCCCCCOC/C=C/c1ccc(O)c(O)c1
IC50 (PC-3): 0.6 µM
IC50 (MCF7): 1.7 µM

CCCCCCCCCCOC/C=C/c1ccc(O)cc1
IC50 (PC-3): > 10 µM
IC50 (MCF7): > 10 µM

O=C(/C=C/c1ccc(O)c(O)c1)OCCc1ccccc1 [CAFFEIC ACID PHENETHYL ESTER]
Activity (Mus musculus [5]): 26.3%
Activity (Mus musculus [6]): 38.6%
Activity [7]: 24.3%
Activity (Mus musculus [8]): 58.3%
Activity (Mus musculus [9]): 137 mg/dL
Activity (Mus musculus [10]): 43.2%
Activity (Mus musculus [11]): 93.8%
Activity [12]: 17.1%
Activity (Mus musculus [13]): 20.8%

O=c1c(O)c(-c2ccc(O)c(O)c2)oc2cc(O)cc(O)c12
FRS50 [1]: 13.4 µM
